In patent US20150246025A1, “2-PHENYL-5-HETEROCYCLYL-TETRAHYDRO-2H-PYRAN-3-AMINE COMPOUNDS FOR USE IN THE TREATMENT OF DIABETES AND ITS ASSOCIATED DISORDERS” (CADILA HEALTHCARE LIMITED, priority 2012, published 2015):

Tests used:
DPP-IV enzyme = biological target: T1, DPP-IV enzyme (Homo sapiens, UniProt P27487); assay: In vitro DPP-IV inhibitory activity using enzymatic (fluorescence-based) assay; assay type: biochemical; settings: soluble human DPP-IV, H-Gly-Pro-AMC 200 μM, pH 7.8, 25° C., 30 min; read-out: % In-vitro DPPIV Inhibition IC50
T1 construct: soluble human proteins (DPP-IV enzyme) produced in a baculovirus expression system; made in house; host or cells: baculovirus expression system (Life Technologies)
T1 sequence (P27487 39-766 limits assumed): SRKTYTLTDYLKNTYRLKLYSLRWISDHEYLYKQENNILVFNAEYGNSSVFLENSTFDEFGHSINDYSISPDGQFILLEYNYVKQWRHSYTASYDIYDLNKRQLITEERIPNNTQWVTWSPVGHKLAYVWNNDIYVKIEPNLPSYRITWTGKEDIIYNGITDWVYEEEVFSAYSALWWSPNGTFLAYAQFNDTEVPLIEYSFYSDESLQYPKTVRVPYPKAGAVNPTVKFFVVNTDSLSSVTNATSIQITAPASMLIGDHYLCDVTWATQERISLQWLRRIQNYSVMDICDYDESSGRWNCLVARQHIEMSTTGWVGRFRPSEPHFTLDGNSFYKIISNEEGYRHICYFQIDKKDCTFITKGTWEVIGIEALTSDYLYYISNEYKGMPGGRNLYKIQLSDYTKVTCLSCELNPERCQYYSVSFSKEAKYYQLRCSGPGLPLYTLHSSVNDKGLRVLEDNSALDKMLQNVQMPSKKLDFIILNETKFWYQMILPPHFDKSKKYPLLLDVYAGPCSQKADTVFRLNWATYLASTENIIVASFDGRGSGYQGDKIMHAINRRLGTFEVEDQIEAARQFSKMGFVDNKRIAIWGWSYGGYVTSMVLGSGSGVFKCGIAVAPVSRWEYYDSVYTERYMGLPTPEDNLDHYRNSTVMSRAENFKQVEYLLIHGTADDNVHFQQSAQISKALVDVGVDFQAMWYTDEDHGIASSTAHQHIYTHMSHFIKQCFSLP
Method: In Vitro DPP-IV Inhibitory Activity Using Enzymatic Assay:
In vitro enzyme (DPP-IV) inhibitory activity was determined using fluorescence-based assay (Anal. Biochem., 200, 352, 1992). The Gly-Pro-AMC was used as a substrate (which is cleaved by the enzymes to release the fluorescent AMC) and soluble human proteins (DPP-IV enzyme) produced in a baculovirus expression system (Life Technologies) was used as the enzyme source. The H-Gly-Pro-AMC (200 μM) was incubated with DPP-IV enzyme in the presence of various concentrations (30 & 100 nM) of test compounds. Reaction was carried out at pH 7.8 (HEPES buffer 25 mM containing 1.0% BSA, 140 mM NaCl, 16 mM MgCl2, 2.8% DMSO) in a total volume of 100 μl at 25° C. for 30 min., in the dark. Reaction was terminated with acetic acid (25 μl of 25% solution). Activity (fluorescence) was measured using Spectra Max fluorometer (Molecular Devices, Sunnyvale Calif.) by exciting at 380 nm and emission at 460 nm.

C57BL/6J mice = assay: In vivo antihyperglycaemic/antidiabetic activity (OGTT), acute single dose 120-min time-course; settings: Mus musculus, 2 h; male C57BL/6J mice, acute single dose 0,3 mg/kg po, 120-min time-course, n = 6, Mean ± SEM; read-out: In vivo OGTT C57; % Glucose change
Method: Acute single dose 120-min time-course experiments were carried out in male C57BL/6J mice, age 8-12 weeks, bred in-house. Animals were housed in groups of 6 animals per cage, for a week, in order to habituate them to vivarium conditions (25±4° C., 60-65% relative humidity, 12: 12 h light: dark cycle, with lights on at 7.30 am). All the animal experiments were carried out according to the internationally valid guidelines following approval by the ‘Zydus Research Center animal ethical committee’.
The in-vivo glucose lowering properties of the test compounds were evaluated in C57BL/6J (mild hyperglycemic) animal models as described below. Two days prior to the study, the animals were randomized and divided into groups (n=6), based upon their fed glucose levels. On the day of experiment, food was withdrawn from all the cages, water was given ad-libitum and were kept for overnight fasting. Vehicle (normal saline)/test compounds were administered orally, on a body weight basis. Soon after the 0 min. blood collection from each animal, the subsequent blood collections were done at 30, 60 and 120 or upto 240 min., via retro-orbital route, under light ether anesthesia (Diabetes Obesity Metabolism, 7, 307, 2005; Diabetes, 52, 751, 2003).
Blood samples were centrifuged and the separated serum was immediately subjected for the glucose estimation. Serum for insulin estimation was stored at −70° C. until used for the insulin estimation. The glucose estimation was carried out with DPEC-GOD/POD method (Ranbaxy Fine Chemicals Limited, Diagnostic division, India), using Spectramax-190, in 96-microwell plate reader (Molecular devices Corporation, Sunnyvale, Calif.). […] The AUC and BCAUC obtained from graphs were analyzed for one way ANOVA, followed by Dunnett's post test, using Graph Pad prism software.

SMILES	IC50 (DPP-IV enzyme) [nM]	change in vivo at 0.3 mg/kg (C57BL/6J mice) [%]
N[C@H]1C[C@@H](N2CC3=C(CN(C(=O)C4CCCCC4)C3)C2)CO[C@@H]1c1cc(F)ccc1F [Compound 26, (5-((3R,5S,6R)-5-amino-6-(2,5-difluorophenyl)tetrahydro-2H-pyran-3-yl)-5,6-dihydropyrrolo[3,4-c]pyrrol-2(1H,3H,4H)-yl)(cyclohexyl)methanone]	< 30	-20.1 ± 1.4
COC(=O)N1CC2=C(C1)CN([C@H]1CO[C@H](c3cc(F)ccc3F)[C@@H](N)C1)C2 [Compound 27, (2R,3S,5R)-2-(2,5-difluorophenyl)-5-(5-(methoxycarbonyl)-5,6-dihydropyrrolo-[3,4-c]pyrrol-2(1H,3H,4H)-yl)tetrahydro-2H-pyran-3-amine]	< 10	-13.7 ± 1.2
CCOC(=O)N1CC2=C(C1)CN([C@H]1CO[C@H](c3cc(F)ccc3F)[C@@H](N)C1)C2 [Compound 28, (2R,3S,5R)-2-(2,5-difluorophenyl)-5-(5-(ethoxycarbonyl)-5,6-dihydropyrrolo[3,4-c]pyrrol-2(1H,3H,4H)-yl)tetrahydro-2H-pyran-3-amine]	< 10	-35 ± 6.1
N[C@H]1C[C@@H](N2CC3=C(C2)CN(S(=O)(=O)C(F)(F)F)C3)CO[C@@H]1c1cc(F)ccc1F [Compound 29, (2R,3S,5R)-2-(2,5-difluorophenyl)-5-(5-((trifluoromethyl)sulfonyl)-5,6-dihydropyrrolo[3,4-c]pyrrol-2(1H,3H,4H)-yl)tetrahydro-2H-pyran-3-amine]	< 30	-27.7 ± 3.1
CCS(=O)(=O)N1CC2=C(CN([C@H]3CO[C@H](c4cc(F)ccc4F)[C@@H](N)C3)C2)C1 [Compound 30, (2R,3S,5R)-2-(2,5-difluorophenyl)-5-(5-(ethylsulfonyl)-5,6-dihydropyrrolo[3,4-c]pyrrol-2(1H,3H,4H)-yl)tetrahydro-2H-pyran-3-amine]	< 10	-35 ± 1.4
CC(C)S(=O)(=O)N1CC2=C(CN([C@H]3CO[C@H](c4cc(F)ccc4F)[C@@H](N)C3)C2)C1 [Compound 31, (2R,3S,5R)-2-(2,5-difluorophenyl)-5-(5-(isopropylsulfonyl)-5,6-dihydropyrrolo[3,4-c]pyrrol-2(1H,3H,4H)-yl)tetrahydro-2H-pyran-3-amine]	< 10	-28.1 ± 3.2
N[C@H]1C[C@@H](N2CC3=C(C2)CN(S(=O)(=O)c2ccccc2)C3)CO[C@@H]1c1cc(F)ccc1F [Compound 32, (2R,3S,5R)-2-(2,5-difluorophenyl)-5-(5-(phenylsulfonyl)-5,6-dihydropyrrolo[3,4-c]pyrrol-2(1H,3H,4H)-yl)tetrahydro-2H-pyran-3-amine]	< 10	-25.3 ± 3.9
N[C@H]1C[C@@H](N2CC3=C(C2)CN(S(=O)(=O)c2ccc(F)cc2)C3)CO[C@@H]1c1cc(F)ccc1F [Compound 33, (2R,3S,5R)-2-(2,5-difluorophenyl)-5-(5-((4-fluorophenyl)sulfonyl)-5,6-dihydropyrrolo[3,4-c]pyrrol-2 (1H,3H,4H)-yl)tetrahydro-2H-pyran-3-amine]	< 30	-16.8 ± 1.6
N#Cc1ccc(S(=O)(=O)N2CC3=C(CN([C@H]4CO[C@H](c5cc(F)ccc5F)[C@@H](N)C4)C3)C2)cc1 [Compound 34, 4-((5-((3R,5S,6R)-5-amino-6-(2,5-difluorophenyl)tetrahydro-2H-pyran-3-yl)-5,6-dihydropyrrolo[3,4-c]pyrrol-2(1H,3H,4H)-yl)sulfonyl)benzonitrile]	< 10	-30.1 ± 3.4
N[C@H]1C[C@@H](N2CC3=C(C2)CN(S(=O)(=O)c2ccc(OC(F)(F)F)cc2)C3)CO[C@@H]1c1cc(F)ccc1F [Compound 35, (2R,3S,5R)-2-(2,5-difluorophenyl)-5-(5-((4-(trifluoromethoxy)phenyl)sulfonyl)-5,6-dihydropyrrolo[3,4-c]pyrrol-2(1H,3H,4H)-yl)tetrahydro-2H-pyran-3-amine]	< 30	-20.5 ± 3.8
N[C@H]1C[C@@H](N2CC3=C(C2)CN(S(=O)(=O)c2ccc(F)cc2F)C3)CO[C@@H]1c1cc(F)ccc1F [Compound 36, (2R,3S,5R)-2-(2,5-difluorophenyl)-5-(5-((2,4-difluorophenyl)sulfonyl)-5,6-dihydropyrrolo[3,4-c]pyrrol-2(1H,3H,4H)-yl)tetrahydro-2H-pyran-3-amine]	< 10	-22.2 ± 2.5
Cc1ccc(S(=O)(=O)N2CC3=C(CN([C@H]4CO[C@H](c5cc(F)ccc5F)[C@@H](N)C4)C3)C2)cc1 [Compound 37, (2R,3S,5R)-2-(2,5-difluorophenyl)-5-(5-tosyl-5,6-dihydropyrrolo[3,4-c]pyrrol-2(1H,3H,4H)-yl)tetrahydro-2H-pyran-3-amine]	< 30	-25.1 ± 3.2
COc1ccc(S(=O)(=O)N2CC3=C(CN([C@H]4CO[C@H](c5cc(F)ccc5F)[C@@H](N)C4)C3)C2)cc1 [Compound 38, (2R,3S,5R)-2-(2,5-difluorophenyl)-5-(5-((4-methoxyphenyl)sulfonyl)-5,6-dihydropyrrolo[3,4-c]pyrrol-2(1H,3H,4H)-yl)tetrahydro-2H-pyran-3-amine]	< 10	-22 ± 2.6
CC(C)c1ccc(S(=O)(=O)N2CC3=C(CN([C@H]4CO[C@H](c5cc(F)ccc5F)[C@@H](N)C4)C3)C2)cc1 [Compound 39, (2R,3S,5R)-2-(2,5-difluorophenyl)-5-(5-((4-isopropylphenyl)sulfonyl)-5,6-dihydropyrrolo[3,4-c]pyrrol-2(1H,3H,4H)-yl)tetrahydro-2H-pyran-3-amine]	< 10	-25.1 ± 3.6
N[C@H]1C[C@@H](N2CC3=C(C2)CN(S(=O)(=O)c2ccc(C(F)(F)F)cc2)C3)CO[C@@H]1c1cc(F)ccc1F [Compound 40, (2R,3S,5R)-2-(2,5-difluorophenyl)-5-(5-((4-(trifluoromethyl)phenyl)sulfonyl)-5,6-dihydropyrrolo[3,4-c]pyrrol-2(1H,3H,4H)-yl)tetrahydro-2H-pyran-3-amine]	< 30	-14 ± 1.5
CC(=O)N1CC2=C(C1)CN([C@H]1CO[C@H](c3cc(F)ccc3F)[C@@H](N)C1)C2 [Compound 41, (2R,3S,5R)-5-(5-acetyl-5,6-dihydropyrrolo[3,4-c]pyrrol-2(1H,3H,4H)-yl)-2-(2,5-difluorophenyl)tetrahydro-2H-pyran-3-amine]	< 100	-6.04 ± 2.6
CC(C)CS(=O)(=O)N1CC2=C(CN([C@H]3CO[C@H](c4cc(F)ccc4F)[C@@H](N)C3)C2)C1 [Compound 42, (2R,3S,5R)-2-(2,5-difluorophenyl)-5-(5-(isobutylsulfonyl)-5,6-dihydropyrrolo[3,4-c]pyrrol-2(1H,3H,4H)-yl)tetrahydro-2H-pyran-3-amine]	< 30	-25.1 ± 2.8
N[C@H]1C[C@@H](N2CC3CS(=O)(=O)CC3C2)CO[C@@H]1c1cc(F)ccc1F (stereo partly drawn) [Compound 43, 5-((3R,5S,6R)-5-amino-6-(2,5-difluorophenyl)tetrahydro-2H-pyran-3-yl)hexahydro-1H-thieno[3,4-c]pyrrole 2,2-dioxide]	< 30	-15.5 ± 3.6
N[C@H]1C[C@@H](N2CC3=C(CNC3)C2)CO[C@@H]1c1cc(F)ccc1F [Compound 44, (2R,3S,5R)-2-(2,5-difluorophenyl)-5-(5,6-dihydropyrrolo[3,4-c]pyrrol-2(1H,3H,4H)-yl)tetrahydro-2H-pyran-3-amine]	< 30	-12.5 ± 1.5
N[C@H]1C[C@@H](N2CC3=C(CN(C(=O)Nc4ccccc4)C3)C2)CO[C@@H]1c1cc(F)ccc1F [Compound 45, 5-((3R,5S,6R)-5-amino-6-(2,5-difluorophenyl)tetrahydro-2H-pyran-3-yl)-N-phenyl-3,4,5,6-tetrahydropyrrolo[3,4-c]pyrrole-2(1H)-carboxamide]	< 10	-34.9 ± 4.4
